In the NIST ThermoML archive (doi:10.1016/j.fluid.2018.08.012):
Where “and” joins values, the source holds several entries; their conditions need not be identical. Identical values can stand only once.

Test: mn = molality of the nth substance listed, in mol/kg
Conditions: Fluid (supercritical or subcritical phases), Vibrating tube method, m1 = 0.2392

O=S=O [sulfur dioxide] + O=C=O
Conditions | mass density
324.07 K, 2523.7 kPa | 45.99 kg/m3
324.07 K, 2524.8 kPa | 46.06 kg/m3
324.07 K, 5037.9 kPa | 106.08 kg/m3
324.07 K, 5047.5 kPa | 106.41 kg/m3
324.07 K, 7549.5 kPa | 197.2 kg/m3
324.07 K, 7550.3 kPa | 197.25 kg/m3
324.07 K, 10068 kPa | 396.72 kg/m3
324.07 K, 10080 kPa | 398.55 kg/m3
324.07 K, 12568 kPa | 620.49 kg/m3 and 620.47 kg/m3
324.07 K, 15086 kPa | 705.24 kg/m3
324.07 K, 15087 kPa | 705.32 kg/m3
324.07 K, 17615 kPa | 754.18 kg/m3
324.07 K, 20140 kPa | 788.89 kg/m3 and 788.93 kg/m3
324.07 K, 22662 kPa | 816.06 kg/m3
324.07 K, 22664 kPa | 816.05 kg/m3
324.07 K, 25179 kPa | 838.47 kg/m3
324.07 K, 25185 kPa | 838.49 kg/m3
324.07 K, 27695 kPa | 857.63 kg/m3
324.07 K, 27705 kPa | 857.68 kg/m3
324.07 K, 30187 kPa | 874.31 kg/m3
324.07 K, 30220 kPa | 874.51 kg/m3
324.07 K, 32689 kPa | 889.28 kg/m3
324.07 K, 32729 kPa | 889.51 kg/m3
324.07 K, 35178 kPa | 902.77 kg/m3
324.07 K, 35212 kPa | 902.97 kg/m3
349.39 K, 2532.7 kPa | 41.96 kg/m3
349.39 K, 2537.9 kPa | 42.01 kg/m3
349.39 K, 5043.8 kPa | 91.74 kg/m3
349.39 K, 5046.4 kPa | 91.91 kg/m3
349.39 K, 7518.6 kPa | 153.18 kg/m3
349.39 K, 7555.2 kPa | 154.4 kg/m3
349.39 K, 10069 kPa | 236.57 kg/m3
349.39 K, 10075 kPa | 236.62 kg/m3
349.39 K, 12580 kPa | 346.19 kg/m3
349.39 K, 12586 kPa | 346.44 kg/m3
349.39 K, 15085 kPa | 467.39 kg/m3
349.39 K, 15089 kPa | 467.53 kg/m3
349.39 K, 17619 kPa | 564.01 kg/m3
349.39 K, 17622 kPa | 564.12 kg/m3
349.39 K, 20144 kPa | 630.6 kg/m3
349.39 K, 20146 kPa | 630.67 kg/m3
349.39 K, 22669 kPa | 678.62 kg/m3
349.39 K, 22671 kPa | 678.72 kg/m3
349.39 K, 25189 kPa | 715.52 kg/m3
349.39 K, 25190 kPa | 715.6 kg/m3
349.39 K, 27706 kPa | 745.39 kg/m3
349.39 K, 27707 kPa | 745.51 kg/m3
349.39 K, 30211 kPa | 770.4 kg/m3
349.39 K, 30216 kPa | 770.37 kg/m3
349.39 K, 32707 kPa | 791.84 kg/m3
349.39 K, 32708 kPa | 791.77 kg/m3
349.39 K, 35200 kPa | 810.62 kg/m3
349.39 K, 35202 kPa | 810.71 kg/m3
375.06 K, 2549.7 kPa | 38.37 kg/m3
375.06 K, 2555.7 kPa | 38.44 kg/m3
375.06 K, 5060.6 kPa | 81.6 kg/m3
375.06 K, 5068.6 kPa | 81.91 kg/m3
375.06 K, 7564.3 kPa | 131.73 kg/m3
375.06 K, 7579.7 kPa | 132.31 kg/m3
375.06 K, 10049 kPa | 189.67 kg/m3
375.06 K, 10080 kPa | 190.27 kg/m3
375.06 K, 12595 kPa | 258.2 kg/m3
375.06 K, 12612 kPa | 259 kg/m3
375.06 K, 15080 kPa | 333.08 kg/m3
375.06 K, 15093 kPa | 333.81 kg/m3
375.06 K, 17617 kPa | 411.4 kg/m3
375.06 K, 17623 kPa | 411.26 kg/m3
375.06 K, 20142 kPa | 482.1 kg/m3
375.06 K, 20148 kPa | 481.92 kg/m3
375.06 K, 22667 kPa | 541.64 kg/m3
375.06 K, 22672 kPa | 541.46 kg/m3
375.06 K, 25185 kPa | 590.31 kg/m3
375.06 K, 25191 kPa | 590.18 kg/m3
375.06 K, 27702 kPa | 630.33 kg/m3
375.06 K, 27708 kPa | 630.2 kg/m3
375.06 K, 30214 kPa | 663.73 kg/m3
375.06 K, 30222 kPa | 663.67 kg/m3
375.06 K, 32714 kPa | 692.09 kg/m3
375.06 K, 32726 kPa | 692.34 kg/m3
375.06 K, 35206 kPa | 716.75 kg/m3
375.06 K, 35223 kPa | 717.02 kg/m3
399.99 K, 2560.5 kPa | 35.13 kg/m3
399.99 K, 2564.5 kPa | 35.68 kg/m3
399.99 K, 5074.4 kPa | 74.46 kg/m3
399.99 K, 5079.5 kPa | 74.06 kg/m3
399.99 K, 7580.3 kPa | 116.91 kg/m3
399.99 K, 7584.9 kPa | 117.53 kg/m3
399.99 K, 10090 kPa | 164.56 kg/m3
399.99 K, 10112 kPa | 164.41 kg/m3
399.99 K, 12594 kPa | 215.96 kg/m3
399.99 K, 12608 kPa | 216.99 kg/m3
399.99 K, 15081 kPa | 271.09 kg/m3
399.99 K, 15090 kPa | 272.1 kg/m3
399.99 K, 17615 kPa | 329.58 kg/m3
399.99 K, 17617 kPa | 330.16 kg/m3
399.99 K, 20141 kPa | 387.34 kg/m3 and 386.76 kg/m3
399.99 K, 22663 kPa | 440.42 kg/m3
399.99 K, 22665 kPa | 441.02 kg/m3
399.99 K, 25183 kPa | 488.79 kg/m3
399.99 K, 25184 kPa | 489.39 kg/m3
399.99 K, 27700 kPa | 532.13 kg/m3
399.99 K, 27701 kPa | 531.53 kg/m3
399.99 K, 30211 kPa | 569.48 kg/m3
399.99 K, 30212 kPa | 568.87 kg/m3
399.99 K, 32703 kPa | 601.95 kg/m3
399.99 K, 32723 kPa | 601.61 kg/m3
399.99 K, 35199 kPa | 630.66 kg/m3
399.99 K, 35210 kPa | 630.23 kg/m3
